Assay [1] deals with T1, human BRD4 bromodomain II (Homo sapiens, UniProt O60885).
T1 construct: human BRD4 bromodomain II [based on Genbank NM_058243, residues 349-460]; host or cells: E. coli
The assay can be described thus: Bromodomain binding assay (AlphaScreen), BRD4 BDII. In outline:
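Inhibition of acetyl-H4 peptide binding to human BRD4 bromodomains is measured by bead-based proximity (AlphaScreen) in pH 7.5 HEPES buffer containing 0.05% CHAPS and 0.1% BSA. Ten compound concentrations in 3-fold steps give competitive binding IC50s.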
(In general: Alpha assays give light when donor and acceptor beads are brought close together.)

For assay [2], the system named is human SKM-1 acute myeloid leukemia cells. The assay can be described thus: SKM-1 antiproliferation cell-based assay (ATPlite). To be noted: Homo sapiens. The gist of the method: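 Log-phase cells in RPMI 1640/15% FBS were seeded at 34722 cells/mL and exposed for 4 days to nine-concentration DMSO serial dilutions in triplicate. Viability was read as ATP luminescence (ATPlite 1step), and IC50 values came from variable-slope non-linear regression.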
A general note: Cellular ATP, detected with luciferase, serves as a proxy for viable cell number.

Setting [3] is: AlphaScreen assay, Table C2, read-out: BRD4 BDII IC50.
Where [4] appears, read: SKM-1, 96 h, SKM-1 antiproliferation assay, 4 days, Table C2.
[5] abbreviates: BRD4 BDII AlphaScreen assay, read-out: BRD4 BD2 IC50.
[6] abbreviates: SKM-1, SKM-1 antiproliferation assay.

This note sets out measurements from patent US20250179059A1 (The Regents of the University of California, priority 2021, published 2025).

Usually pIC50 stands for the IC50 on a negative log10 scale, so that one unit is a factor of ten. The GI50 is the concentration giving 50% growth inhibition.

pIC50: −log10 of the molar value. Read-outs that look alike come from different tables or passages of the source.

For the compound `COCC(COC)N1CCN(c2cc(-c3cc(F)cc(-c4ccc(-n5ccn(C)c5=O)c(Cl)c4)c3O)ccn2)CC1` [Example 733, 1-(3-chloro-3′-(2-(4-(1,3-dimethoxypropan-2-yl)piperazin-1-yl)pyridin-4-yl)-5′-fluoro-2′-hydroxy-[1,1′-biphenyl]-4-yl)-3-methyl-1H-imidazol-2(3H)-one], the negative logarithm of the IC50 (pIC50) in assay [1] (setting [3]) was 8.00 to 9.00. Besides, the concentration for 50% growth inhibition (GI50) in assay [2] (setting [4]) lay within 30 to 300 nM.
The corresponding values for `CN1CCN(c2ccc(-c3cc(F)cc(-c4ccnc(N5CCNc6ccccc65)c4)c3O)cc2Cl)C1=O` [Example 483, 1-(3-chloro-3′-(2-(3,4-dihydroquinoxalin-1(2H)-yl)pyridin-4-yl)-5′-fluoro-2′-hydroxy-[1,1′-biphenyl]-4-yl)-3-methylimidazolidin-2-one] are less than 7.00 and not below 3000 nM.
Regarding `Cc1cc(-c2ccc(-n3ccn(C)c3=O)c(Cl)c2)c(O)c(-c2cc(N3CC[C@H](N)C3)c3nc[nH]c3c2)c1` [Example 564], in assay [1] (setting [3]), the negative-log IC50 (pIC50) is 9.00 to 11.00. For the same compound, the 50% growth inhibitory concentration (GI50) in assay [2] (setting [4]) was in the range of 0.3 to 30 nM.
Take `CC(=O)Nc1ccc(-c2cc(F)cc(-c3cccc(N4CCN(C(C)(C)C)CC4)c3)c2O)cn1` [Example 908, N-(5-(3′-(4-(tert-butyl)piperazin-1-yl)-5-fluoro-2-hydroxy-[1,1′-biphenyl]-3-yl)pyridin-2-yl)acetamide]: the pIC50 in assay [1] (setting [5]) is less than 7.00. Moreover, in assay [2] (setting [6]), the 50% growth inhibitory concentration (GI50) was more than 3000 nM.
Take `Cn1ccn(-c2ccc(-c3cc(F)cc(-c4ccnc(N5CCNCCC5=O)c4)c3O)cc2Cl)c1=O` [Example 665, 4-(4-(3′-chloro-5-fluoro-2-hydroxy-4′-(3-methyl-2-oxo-2,3-dihydro-1H-imidazol-1-yl)-[1,1′-biphenyl]-3-yl)pyridin-2-yl)-1,4-diazepan-5-one]: the pIC50 in assay [1] (setting [3]) was 9.00 to 11.00. The compound also registered a GI50 in assay [2] (setting [4]) of 30 to 300 nM.
On the same counts, the results for `C[C@@H]1CN(c2cc(-c3cc(F)cc(-c4ccc(-n5ccn(C)c5=O)c(F)c4)c3O)ccn2)CCN1` [Example 534, (R)-1-(3,5′-difluoro-2′-hydroxy-3′-(2-(3-methylpiperazin-1-yl)pyridin-4-yl)-[1,1′-biphenyl]-4-yl)-3-methyl-1H-imidazol-2(3H)-one] are 8.00 to 9.00 and 0.3 to 30 nM.
The corresponding values for `Cc1cc(-c2ccnc(N3CCN[C@H](C)C3)c2)c(O)c(-c2ccc(-n3ccn(C)c3=O)c(Cl)c2)c1` [Example 500, (R)-1-(3-chloro-2′-hydroxy-5′-methyl-3′-(2-(3-methylpiperazin-1-yl)pyridin-4-yl)-[1,1′-biphenyl]-4-yl)-3-methyl-1H-imidazol-2(3H)-one] are 8.00 to 9.00 and 0.3 to 30 nM.
On the same counts, the results for `CN1CCN(c2ccc(-c3cccc(-c4ccc(C#N)c(N5CCNCC5)c4)c3O)cc2Cl)C1=O` [Example 308, 3″-chloro-2′-hydroxy-4″-(3-methyl-2-oxoimidazolidin-1-y1)-3-(piperazin-1-yl)-[1,1′:3′,1″-terphenyl]-4-carbonitrile] are 8.00 to 9.00 and 30 to 300 nM.
With `CCc1ncc(-c2cc(F)cc(-c3ccc(N4CCN(C)C4=O)c(Cl)c3)c2O)cc1N1CCNCC1` [Example 382, 1-(3-chloro-3′-(6-ethyl-5-(piperazin-1-yl)pyridin-3-yl)-5′-fluoro-2′-hydroxy-[1,1′-biphenyl]-4-yl)-3-methylimidazolidin-2-one], the pIC50 in assay [1] (setting [3]) is 8.00 to 9.00. Also, in assay [2] (setting [4]), the concentration for 50% growth inhibition (GI50) lay within 30 to 300 nM.
In the case of `CN1CCC2(CC(=O)N(c3cc(-c4cc(F)cc(-c5ccc(-n6ccn(C)c6=O)c(Cl)c5)c4O)ccn3)C2)C1` (stereo not drawn) [Example 712, 2-(4-(3′-chloro-5-fluoro-2-hydroxy-4′-(3-methyl-2-oxo-2,3-dihydro-1H-imidazol-1-yl)-[1,1′-biphenyl]-3-yl)pyridin-2-yl)-7-methyl-2,7-diazaspiro[4.4]nonan-3-one], in assay [1] (setting [3]), the negative logarithm of the IC50 (pIC50) was 9.00 to 11.00. The compound also registered a GI50 in assay [2] (setting [4]) of 30 to 300 nM.
In the case of `CC(C)N1CCN(c2cccc(-c3cc(F)cc(-c4ccc(-n5ccn(C)c5=O)c(Cl)c4)c3O)c2)CC1` [Example 699, 1-(3-chloro-5′-fluoro-2′-hydroxy-3″-(4-isopropylpiperazin-1-yl)-[1,1′:3′,1″-terphenyl]-4-yl)-3-methyl-1H-imidazol-2(3H)-one], the pIC50 in assay [1] (setting [3]) was 9.00 to 11.00. The same compound yielded a concentration for 50% growth inhibition (GI50) in assay [2] (setting [4]) of 0.3 to 30 nM.
Regarding `CNC1CCN(c2cncc(-c3cc(F)cc(-c4ccc(-n5ccn(C)c5=O)c(Cl)c4)c3O)c2)CC1` [Example 516, 1-(3-chloro-5′-fluoro-2′-hydroxy-3′-(5-(4-(methylamino)piperidin-1-yl)pyridin-3-yl)-[1,1′-biphenyl]-4-yl)-3-methyl-1H-imidazol-2(3H)-one], in assay [1] (setting [3]), the negative logarithm of the IC50 (pIC50) was 8.00 to 9.00. Also, the GI50 in assay [2] (setting [4]) fell in the range of 0.3 to 30 nM.
On the same counts, the results for `CC(=O)Nc1ccc(-c2cccc(-c3cc(C#N)nc(N4CCNCC4)c3)c2O)cc1F` [Example 313, N-(3′-(2-cyano-6-(piperazin-1-yl)pyridin-4-yl)-3-fluoro-2′-hydroxy-[1,1′-biphenyl]-4-yl)acetamide] are less than 7.00 and not below 3000 nM.
The corresponding values for `Cn1ccn(-c2ccc(-c3cc(F)cc(-c4cc(NC(=O)C5CC5)nc(N5CC[C@H](N)C5)c4)c3O)cc2Cl)c1=O` [Example 525, (S)-N-(6-(3-aminopyrrolidin-1-yl)-4-(3′-chloro-5-fluoro-2-hydroxy-4′-(3-methyl-2-oxo-2,3-dihydro-1H-imidazol-1-yl)-[1,1′-biphenyl]-3-yl)pyridin-2-yl)cyclopropanecarboxamide] are 8.00 to 9.00 and 0.3 to 30 nM.
The corresponding values for `COc1ncc(-c2cc(F)cc(-c3ccc(-n4ccn(C)c4=O)c(Cl)c3)c2O)cc1N1CC(O)(CO)C1` [Example 838, 1-(3-chloro-5′-fluoro-2′-hydroxy-3′-(5-(3-hydroxy-3-(hydroxymethyl)azetidin-1-yl)-6-methoxypyridin-3-yl)-[1,1′-biphenyl]-4-yl)-3-methyl-1H-imidazol-2(3H)-one] are 9.00 to 11.00 and 30 to 300 nM.
`Cn1ccn(-c2ccc(-c3cc(F)cc(-c4cc(-c5cn[nH]c5)cc(N5CCNCC5)c4)c3O)cc2Cl)c1=O` [Example 571]: in assay [1] (setting [3]), the negative logarithm of the IC50 (pIC50) is 8.00 to 9.00. For the same compound, the GI50 in assay [2] (setting [4]) lay in the range of 0.3 to 30 nM.
Regarding `Cn1ccn(-c2ccc(-c3cc(F)cc(-c4ccc(C(F)F)c(N5CCN(C(C)(C)C)CC5)c4)c3O)cc2Cl)c1=O` [Example 813, 1-(3″-(4-(tert-butyl)piperazin-1-yl)-3-chloro-4″-(difluoromethyl)-5′-fluoro-2′-hydroxy-[1,1′:3′,1″-terphenyl]-4-yl)-3-methyl-1H-imdiazol-2(3H)-one], the pIC50 in assay [1] (setting [3]) was 9.00 to 11.00. In assay [2] (setting [4]), this compound gave a 50% growth inhibitory concentration (GI50) of 30 to 300 nM.
On the same counts, the results for `Cc1cc(-c2cc(F)cc(-c3ccnc(N4CCNCC4)c3)c2O)cc(Cl)c1N1CCCC1=O` [Example 386, 1-(3-chloro-5′-fluoro-2′-hydroxy-5-methyl-3′-(2-(piperazin-1-yl)pyridin-4-yl)-[1,1′-biphenyl]-4-yl)pyrrolidin-2-one] are less than 7.00 and 300 to 3000 nM.
In the case of `Cn1ccn(-c2ccc(-c3cc(F)cc(-c4ccnc(N5CC(C)(C)C(C)(O)C5)c4)c3O)cc2Cl)c1=O` (stereo not drawn) [Example 783, 1-(3-chloro-5′-fluoro-2′-hydroxy-3′-(2-(3-hydroxy-3,4,4-trimethylpyrrolidin-1-yl)pyridin-4-yl)-[1,1′-biphenyl]-4-yl)-3-methyl-1H-imidazol-2(3H)-one], the negative logarithm of the IC50 (pIC50) in assay [1] (setting [3]) is 9.00 to 11.00. The 50% growth inhibitory concentration (GI50) in assay [2] (setting [4]) lay in the range of 0.3 to 30 nM.
`Cc1cc(-c2ccc(-n3ccn(C)c3=O)c(Cl)c2)c(O)c(-c2ccnc(N3CC(F)(F)[C@](C)(O)C3)c2)n1` [Example 1037, (R)-1-(2-chloro-4-(2′-(3,3-difluoro-4-hydroxy-4-methylpyrrolidin-1-yl)-3-hydroxy-6-methyl-[2,4′-bipyridin]-4-yl)phenyl)-3-methyl-1,3-dihydro-2H-imidazol-2-one]: the pIC50 in assay [1] (setting [5]) was 8.00 to 9.00. In assay [2] (setting [6]), the GI50 lay within 0.3 to 30 nM.
In the case of `CN1CCN(c2cc(-c3cc(F)cc(-c4ccc(-n5ccn(C)c5=O)c(Cl)c4)c3O)cc3[nH]ncc23)CC1` [Example 588, 1-(3-chloro-5′-fluoro-2′-hydroxy-3′-(4-(4-methylpiperazin-1-yl)-1H-indazol-6-yl)-[1,1′-biphenyl]-4-yl)-3-methyl-1H-imidazol-2(3H)-one], in assay [1] (setting [3]), the negative logarithm of the IC50 (pIC50) is 9.00 to 11.00. This compound showed a GI50 in assay [2] (setting [4]) of 0.3 to 30 nM.
The corresponding values for `CN1CCN(c2ccc(-c3cc(F)cc(-c4cnc(OCCO)c(N5CCNCC5)c4)c3O)cc2Cl)C1=O` [Example 392, 1-(3-chloro-5′-fluoro-2′-hydroxy-3′-(6-(2-hydroxyethoxy)-5-(piperazin-1-yl)pyridin-3-yl)-[1,1′-biphenyl]-4-yl)-3-methylimidazolidin-2-one] are 8.00 to 9.00 and 30 to 300 nM.
On the same counts, the results for `CC(=O)Nc1ccc(-c2cccc(-c3ccnc(C#CCCN)c3)c2O)cc1F` [Example 304, N-(3′-(2-(4-aminobut-1-yn-1-yl)pyridin-4-yl)-3-fluoro-2′-hydroxy-[1,1′-biphenyl]-4-yl)acetamide] are 7.00 to 8.00 and 300 to 3000 nM.
The corresponding values for `CN1CCN(c2ccc(-c3cccc(-c4ccnc(N5CC6(CNC6)C5)c4)c3O)cc2F)C1=O` [Example 322, 1-(3′-(2-(2,6-diazaspiro[3.3]heptan-2-yl)pyridin-4-yl)-3-fluoro-2′-hydroxy-[1,1′-biphenyl]-4-yl)-3-methylimidazolidin-2-one] are 7.00 to 8.00 and 30 to 300 nM.
